{"source": "patent US20230398068A1", "about": "(priority 2020, published 2023)", "key": {"[1]": {"test_system": "3D organotypic human bronchial cultures", "assay": "Transepithelial electrical resistance (TEER)", "settings": "post 24 h exposure"}, "[2]": {"settings": "Frisk-Holmberg et al., Cui et al.; cited from earlier work"}, "[3]": {"test_system": "novel coronavirus (2019-nCoV)", "settings": "cited from earlier work"}, "[4]": {"test_system": "SARS-CoV-2 clinically isolated strain", "settings": "Vero cells, 24 hours, Yao et al.; cited from earlier work"}, "[5]": {"assay": "Aerosol particle size distribution (Aerodynamic Particle Sizer)", "settings": "thermal aerosolization 200-220° C., 40 mg/mL in propylene glycol"}, "[6]": {"assay": "Thermal decomposition during thermal aerosolization (LC-HR-MS)", "settings": "LC-HR-MS spectra of aerosol sample"}, "[7]": {"assay": "Transfer rate assessment, liquid formulation to aerosol (Cambridge filter pad, LC-HR-MS)", "settings": "30 puffs collected"}}}
{"smiles": "CCN(CC)CCCC(C)Nc1ccnc2cc(Cl)ccc12", "note": "(stereo not shown) [chloroquine]", "values": [{"measurement": "TEER", "setting": "[1]; 50 puffs", "value": "very low TEER values for two replicates"}, {"measurement": "TEER", "setting": "[1]; 100 puffs", "value": "no overall effect"}, {"measurement": "plasma concentration at which no adverse reactions are observed", "setting": "[2]", "value": 400, "unit": "ng/mL"}, {"measurement": "warning limit plasma concentration at which 80% of the subjects showed adverse effects", "setting": "[2]", "value": 800, "unit": "ng/mL"}, {"measurement": "EC50", "setting": "[3]; block of COVID-19 infection in vitro, Wang et al., read-out: half-maximal effective concentration (EC50)", "value": 1.13, "unit": "µM"}, {"measurement": "in vitro EC50", "setting": "[3]; values from Wang et al.", "value": 0.362, "unit": "µg/mL"}, {"measurement": "in vitro EC90", "setting": "[3]; values from Wang et al.", "value": 2.208, "unit": "µg/mL"}, {"measurement": "EC50", "setting": "[4]", "value": 23.9, "unit": "µM"}, {"measurement": "median aerodynamic diameter of aerosol particles", "setting": "[5]", "value": 1.3, "unit": "μm"}, {"measurement": "decomposition during thermal aerosolization", "setting": "[6]", "value": "no decomposition"}, {"measurement": "amount per puff in aerosol", "setting": "[7]; 40 mg/mL chloroquine liquid formulation", "value": 149.69, "unit": "µg"}]}
{"smiles": "CCN(CCO)CCCC(C)Nc1ccnc2cc(Cl)ccc12", "note": "(stereo not shown) [hydroxychloroquine]", "values": [{"measurement": "decomposition during thermal aerosolization", "setting": "[6]", "value": "no decomposition"}, {"measurement": "amount per puff in aerosol", "setting": "[7]; 100 mg/mL hydroxychloroquine liquid formulation", "value": 330.32, "unit": "µg"}]}
